Where “and” joins values, the source holds several entries; their conditions need not be identical. Equal entries are not always repeated.
Legend:
Human recombinant Top1 = biological target: T1, Human recombinant Top1 (Homo sapiens, UniProt P11387); test: Topoisomerase I-mediated DNA cleavage reactions; type: biochemical; parameters: key to activity of the compounds to produce Top1-mediated DNA cleavage: +: weak activity; ++ and +++: moderate activity; ++ and +++: moderate activity; ++++: similar activity as 1 μM camptothecin; details: for activity of the compounds to produce Top1-mediated DNA cleavage: semiquantitative, tested at 0.1 μM, 1 μM, 10 μM, 100 μM, relative to 1 μM camptothecin; for Top1 inhibitory activity in Top1-mediated DNA cleavage assay: semi-quantitative scale from 0 to ++++, relative to CPT at 1 μM
T1 construct: made in house
T1 sequence (P11387 1-765): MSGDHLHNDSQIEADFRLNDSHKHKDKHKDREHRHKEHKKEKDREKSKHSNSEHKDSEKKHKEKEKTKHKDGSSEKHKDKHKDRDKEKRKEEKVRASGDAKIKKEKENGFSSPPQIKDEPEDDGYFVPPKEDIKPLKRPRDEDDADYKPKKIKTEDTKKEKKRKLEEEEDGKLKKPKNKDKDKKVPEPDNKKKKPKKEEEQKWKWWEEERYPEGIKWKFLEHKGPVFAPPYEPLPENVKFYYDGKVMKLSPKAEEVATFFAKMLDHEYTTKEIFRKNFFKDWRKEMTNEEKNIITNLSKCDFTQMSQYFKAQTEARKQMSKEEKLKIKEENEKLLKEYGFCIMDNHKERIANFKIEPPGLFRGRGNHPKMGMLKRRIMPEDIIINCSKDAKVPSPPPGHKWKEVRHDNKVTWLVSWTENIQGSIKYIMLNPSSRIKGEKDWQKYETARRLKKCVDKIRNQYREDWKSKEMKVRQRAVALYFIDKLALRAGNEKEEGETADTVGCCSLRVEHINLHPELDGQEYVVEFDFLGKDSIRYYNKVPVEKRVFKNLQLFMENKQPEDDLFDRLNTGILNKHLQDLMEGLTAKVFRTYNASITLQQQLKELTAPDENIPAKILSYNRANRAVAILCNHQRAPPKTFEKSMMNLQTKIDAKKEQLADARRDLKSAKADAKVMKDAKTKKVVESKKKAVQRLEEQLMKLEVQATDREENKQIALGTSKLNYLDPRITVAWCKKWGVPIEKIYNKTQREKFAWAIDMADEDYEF
Experimental: Topoisomerase I-Mediated DNA Cleavage Reactions. Human recombinant Top1 was purified from Baculovirus as described previously.^34 The 161 bp fragment from pBluescript SK(−) phagemid DNA (Stratagene, La Jolla, Calif.) was cleaved with the restriction endonucleases PvuII and HindIII (New England Biolabs, Beverly, Mass.) supplied in NE buffer 2 (50 μL reactions) for 1 h at 37° C., and separated by electrophoresis in a 1% agarose gel made in 1×TBE buffer. The 161 bp fragment was eluted from the gel slice using the QIAEX II kit (QIAGEN Inc., Valencia, Calif.). Approximately 200 ng of the fragment was 3′-end labeled at the HindIII site by fill-in reaction with [alpha-^32P]-dGTP and 0.5 mM dATP, dCTP, and dTTP, in React 2 buffer (50 mM Tris-HCl, pH 8.0, […], 50 mM NaCl) with 0.5 unit of DNA polymerase I (Klenow fragment). Unincorporated ^32P-dGTP was removed using mini Quick Spin DNA columns (Roche, Indianapolis, Ind.), and the eluate containing the 3′-end-labeled 161 bp fragment was collected. Aliquots (approximately 50,000 dpm/reaction) were incubated with topoisomerase I at 22° C. for 30 min in the presence of the tested drug. Reactions were terminated by adding SDS (0.5% final concentration). The samples (10 μL) were mixed with 30 μL of loading buffer (80% formamide, 10 mM sodium hydroxide, 1 mM sodium EDTA, 0.1% xylene cyanol, and 0.1% bromophenol blue, pH 8.0). Aliquots were separated in denaturing gels (16% polyacrylamine, 7 M urea). Gels were dried and visualized by using a Phosphoimager and ImageQuant software (Molecular Dynamics, Sunnyvale, Calif.). Each gel included a sample of DNA alone, DNA with only the drug, and DNA with Top I without the drug. The compounds described herein were tested at concentrations of 0.1 μM, 1 μM, 10 μM, 100 μM. The activity of the compounds to produce Top1-mediated DNA cleavage is expressed semiquantitatively as follows: +: weak activity; ++ and +++: moderate activity; ++++: similar activity as 1 μM camptothecin. Results: 33, 0; 34, 0; 32, ++; 31, +++; 30, +; 29, +; 28, 0; and 19, 0.
Biological Results.All of the target compounds were tested for induction of DNA damage in Top1-mediated DNA cleavage assays. The results of this assay are designated relative to the Top1 inhibitory activity of CPT and expressed in semi-quantitative fashion on the scale from 0, no detectable activity, to ++++, similar activity to that of compound 1 at a concentration of 1 μM. […] Compounds 29 and 30, containing an N-(3-morpholinylpropyl) or an N-(3-imidazolylpropyl), respectively were Top1 inhibitors, but only at the lower + level. Without being bound by theory, it is believed that the loss of Top1 inhibitory activity with expansion of the five-membered indenone ring of the indenoisoquinoline to the six-membered ring of compounds described herein might result from the decreased overall solubility, especially for 14, 19, and 28, rather than differences in intercalation between DNA base pairs at the Top1 cleavage site. With 29 and 30, incorporation of amines increased water solubility and affinity toward DNA, possibly due to attraction of their positively charged protonated amines with the phosphates of the DNA backbone.

[1] = Solubility in organic solvents; type: physicochemical; details: relative to their precursors 14 and 29
[2] = test system: all human cancer cell lines successfully tested; test: NCI screen mean graph midpoint for growth inhibition; type: cell-based; details: mean over all human cancer cell lines successfully tested
Experimental: (§1) The antipoliferative activity of each compound was tested against 55 different human cancer cell lines in the National Cancer Institute screen.^32, 33 The chlorodibenzonaphthyridinone 32 bearing a morpholinopropyl chain on the lactam nitrogen was cytotoxic to human cancer cells at low micromolar concentrations. The cytotoxicities of 32 in selected cell lines are presented in Table 1, along with the mean graph midpoint value of 5.6 μM. In general, cytotoxicity GI50 values appeared to be in the low micromolar range, although 32 was particularly cytotoxic in the leukemia K-562 and RPMI-8226 cell lines, the ovarian IGROV1 cancer cell line, the renal UO-31 cancer cell line, and the breast MCF7 cancer cell line.

UACC-62 = test: NCI screen antiproliferative activity, melanoma UACC-62; type: cell-based; details: Homo sapiens, concentration for 50% growth inhibition
Experimental: as §1

IGROV1 = test: NCI screen antiproliferative activity, ovarian IGROV1; type: cell-based; details: Homo sapiens, IGROV-1, concentration for 50% growth inhibition
Experimental: as §1

SN12C = test: NCI screen antiproliferative activity, renal SN12C; type: cell-based; details: Homo sapiens, concentration for 50% growth inhibition
Experimental: as §1

COLO 205 = test: NCI screen antiproliferative activity, colon COLO 205; type: cell-based; details: Homo sapiens, concentration for 50% growth inhibition
Experimental: as §1

HCT-116 = test: NCI screen antiproliferative activity, colon HCT-116; type: cell-based; details: Homo sapiens, concentration for 50% growth inhibition
Experimental: as §1

DU-145 = test: NCI screen antiproliferative activity, prostate DU-145; type: cell-based; details: Homo sapiens, concentration for 50% growth inhibition
Experimental: as §1

RPMI-8226 = test: NCI screen antiproliferative activity, leukemia RPMI-8226; type: cell-based; details: Homo sapiens, concentration for 50% growth inhibition
Experimental: as §1

OVCAR-3 = test: NCI screen antiproliferative activity, ovarian OVCAR-3; type: cell-based; details: Homo sapiens, concentration for 50% growth inhibition
Experimental: as §1

HOP-62 = test: NCI screen antiproliferative activity, lung HOP-62; type: cell-based; details: Homo sapiens, concentration for 50% growth inhibition
Experimental: as §1

K-562 = test: NCI screen antiproliferative activity, leukemia K-562; type: cell-based; details: Homo sapiens, K562, concentration for 50% growth inhibition
Experimental: as §1

MCF7 = test: NCI screen antiproliferative activity, breast MCF7; type: cell-based; details: Homo sapiens, concentration for 50% growth inhibition
Experimental: as §1

SF-539 = test: NCI screen antiproliferative activity, CNS SF-539; type: cell-based; details: Homo sapiens, concentration for 50% growth inhibition
Experimental: as §1

UO-31 = test: NCI screen antiproliferative activity, renal UO-31; type: cell-based; details: Homo sapiens, concentration for 50% growth inhibition
Experimental: as §1

[3] = Top1-mediated DNA fragmentation pattern, compared with indenoisoquinolines

## COc1cc2c(=O)n(CCCn3ccnc3)c3c4ccccc4[nH]c(=O)c3c2cc1OC [Compound 30, 5-(3-(1H-Imidazol-1-yl)propyl)-8,9-dimethoxydibenzo[c,h][1,6]-naphthyridine-6,11(5H,12H)dione]
Human recombinant Top1
  activity of the compounds to produce Top1-mediated DNA cleavage: +

## COc1cc2c(OC)nc3c4ccccc4nc(OC)c3c2cc1OC [Compound 34, 6,8,9,11-Tetramethoxydibenzo[c,h][1,6]naphthyridine]
Human recombinant Top1
  Top1 inhibitory activity in Top1-mediated DNA cleavage assay: loss of activity
  activity of the compounds to produce Top1-mediated DNA cleavage: 0

## COc1cc2c(=O)n(C)c3c4ccccc4nc(Cl)c3c2cc1OC [Compound 31, 11-Chloro-8,9-dimethoxy-5-methyldibenzo[c,h][1,6]naphthyridin-6(5H)-one]
Human recombinant Top1; [3]
  cleavage band intensity at base pair 97: more intense
  cleavage band intensity at base pairs 44 and 68: weak
Human recombinant Top1
  activity of the compounds to produce Top1-mediated DNA cleavage: +++
[1]
  solubilities in solvents like DMSO, methanol and chloroform: increased substantially

## COc1cc2c(=O)n(CCCN3CCOCC3)c3c4ccccc4[nH]c(=O)c3c2cc1OC [Compound 29, 8,9-Dimethoxy-5-(3-morpholinopropyl)dibenzo[c,h][1,6]naphthyridine-6,11(5H,12H)-dione]
Human recombinant Top1
  activity of the compounds to produce Top1-mediated DNA cleavage: +

## COc1cc2c(Cl)nc3c4ccccc4nc(Cl)c3c2cc1OC [Compound 33, 6,11-Dichloro-8,9-dimethoxydibenzo[c,h][1,6]naphthyridine]
Human recombinant Top1
  Top1 inhibitory activity in Top1-mediated DNA cleavage assay: loss of activity
  activity of the compounds to produce Top1-mediated DNA cleavage: 0

## COc1cc2c(=O)n(CCCO)c3c4ccccc4[nH]c(=O)c3c2cc1OC [Compound 28, 5-(3-Hydroxypropyl)-8,9-dimethoxydibenzo[c,h][1,6]naphthyridine-6,11(5H,12H)-dione]
Human recombinant Top1
  Top1 inhibitory activity in Top1-mediated DNA cleavage assay: no detectable inhibition
  activity of the compounds to produce Top1-mediated DNA cleavage: 0

## COc1cc2c(=O)n(C)c3c4ccccc4[nH]c(=O)c3c2cc1OC [Compound 14, 8,9-Dimethoxy-5-methyldibenzo[c,h][1,6]naphthyridine-6,11(5H,12H)-dione]
Human recombinant Top1
  Top1 inhibitory activity in Top1-mediated DNA cleavage assay: no detectable inhibition and 0

## COc1cc2c(=O)n(CCCN3CCOCC3)c3c4ccccc4nc(Cl)c3c2cc1OC [Compound 32, 11-Chloro-8,9-dimethoxy-5-(3-morpholinopropyl)dibenzo[c,h][1,6]-naphthyridin-6(5H)-one]
Human recombinant Top1; Top1-mediated DNA fragmentation pattern
  DNA cleavage sites with significant band intensity: only bands for cleavages at the 97 and 119 sites are intense enough to be significant
Human recombinant Top1
  activity of the compounds to produce Top1-mediated DNA cleavage: ++
[2]
  MGM (mean GI50 across cell lines): 5.6 µM
UACC-62
  GI50: 6.8 µM
IGROV1
  GI50: 0.03 µM
SN12C
  GI50: 13.2 µM
COLO 205
  GI50: 0.33 µM
HCT-116
  GI50: 4.16 µM
DU-145
  GI50: 10.5 µM
RPMI-8226
  GI50: 0.1 µM
other
  melting point: 185 to 190 °C (dec.)
OVCAR-3
  GI50: 6.3 µM
HOP-62
  GI50: 4.7 µM
[1]
  solubilities in solvents like DMSO, methanol and chloroform: increased substantially
K-562
  GI50: 0.2 µM
MCF7
  GI50: 0.4 µM
SF-539
  GI50: 12.3 µM
UO-31
  GI50: 0.02 µM

## C=CCn1c(=O)c2cc(OC)c(OC)cc2c2c(=O)[nH]c3ccccc3c21 [Compound 19, 5-Allyl-8,9-dimethoxydibenzo[c,h][1,6]naphthyridine-6,11(5H,12H)-dione]
Human recombinant Top1
  Top1 inhibitory activity in Top1-mediated DNA cleavage assay: no detectable inhibition
  activity of the compounds to produce Top1-mediated DNA cleavage: 0
